Source: patent US20230027361A1, “METTL3 MODULATORS” (priority 2019, published 2023)
Like-named read-outs stand apart in the source and are kept apart here.

Tests used:
[1] = target: T1, METTL16 (Homo sapiens, UniProt Q86W50); assay: METTL16 Assay (METTL16 biochemical assay); conditions: read-out: METTL16 IC50
T1 sequence (Q86W50 1-562): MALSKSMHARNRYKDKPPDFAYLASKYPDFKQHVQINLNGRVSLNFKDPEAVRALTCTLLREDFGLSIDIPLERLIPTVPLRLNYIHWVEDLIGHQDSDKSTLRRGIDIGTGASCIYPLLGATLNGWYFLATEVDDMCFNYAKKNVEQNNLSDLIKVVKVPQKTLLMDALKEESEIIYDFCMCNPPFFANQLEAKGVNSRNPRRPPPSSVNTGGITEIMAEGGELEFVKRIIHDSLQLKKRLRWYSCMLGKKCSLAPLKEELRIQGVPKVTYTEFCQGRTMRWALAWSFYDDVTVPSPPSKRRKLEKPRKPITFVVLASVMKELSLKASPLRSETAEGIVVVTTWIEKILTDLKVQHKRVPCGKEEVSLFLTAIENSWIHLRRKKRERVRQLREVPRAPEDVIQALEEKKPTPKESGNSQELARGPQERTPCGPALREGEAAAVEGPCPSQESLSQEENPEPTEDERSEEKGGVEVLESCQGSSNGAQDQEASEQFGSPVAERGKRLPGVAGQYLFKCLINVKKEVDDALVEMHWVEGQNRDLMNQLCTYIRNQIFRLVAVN
Outline: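 Radiometric methyltransferase reaction at ambient temperature in 20 mM HEPES pH 7.5, 50 mM KCl, 1 mM DTT, with 100 nM enzyme preincubated 5 min with compound. It was started with 50 nM 3′-biotinylated RNA, 200 nM 3H-SAM plus 800 nM cold SAM, run 20 min, then quenched with excess cold SAM. Product was captured on streptavidin flashplates and scintillation-counted.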

[2] = target: METTL3/METTL14 (Homo sapiens, UniProt Q86U44); assay: METTL3-14 Standard Enzyme Assay (METTL3 biochemical assay)
Outline: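 METTL3/METTL14 at 2.5 nM, preincubated 5 min with compound in 20 mM HEPES pH 7.5, 50 mM KCl, 250 μM MgCl2, 1 mM DTT, at ambient temperature. Started with 100 nM 3′-biotinylated RNA and 100 nM ³H-SAM, quenched at 30 min with 15 μM cold SAM. Methylation read by scintillation on streptavidin flashplates.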

[3] = test system: m6A in cellular mRNA of MOLM-13 cells; assay: m6A-mRNA LC-MS/MS Assay (m6A cellular assay); type: cell-based; conditions: Homo sapiens, MOLM-13, read-out: m^6A IC50
Outline: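 Cells harvested, mRNA extracted and digested to single nucleosides, then analysed by LC-MS/MS. Nucleosides quantified against a standard curve from pure nucleoside standards run in the same batch. m6A level expressed as 100*(m6A/A).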

[4] = test system: MOLM-13 cells; assay: MOLM-13 48 Hour Cell Proliferation Assay; type: cell-based; conditions: Homo sapiens
Outline: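 MOLM-13 cells in RPMI 1640 with 10% FBS, plated overnight, then exposed 48 h at 37 °C to a 10-point, 4-fold compound dilution series (0.25% DMSO final). Viability read by CellTiter-Glo luminescence, normalized to staurosporine (100% death) and DMSO (0%); IC50 from 4-parameter logistic fit.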

[5] = read-out: METTL3 IC50; METTL3 biochemical assay
[6] = METTL3 biochemical assay; read-out: METTL3 IC50

Sequence of METTL3/METTL14 (Q86U44 whole entry, species assumed): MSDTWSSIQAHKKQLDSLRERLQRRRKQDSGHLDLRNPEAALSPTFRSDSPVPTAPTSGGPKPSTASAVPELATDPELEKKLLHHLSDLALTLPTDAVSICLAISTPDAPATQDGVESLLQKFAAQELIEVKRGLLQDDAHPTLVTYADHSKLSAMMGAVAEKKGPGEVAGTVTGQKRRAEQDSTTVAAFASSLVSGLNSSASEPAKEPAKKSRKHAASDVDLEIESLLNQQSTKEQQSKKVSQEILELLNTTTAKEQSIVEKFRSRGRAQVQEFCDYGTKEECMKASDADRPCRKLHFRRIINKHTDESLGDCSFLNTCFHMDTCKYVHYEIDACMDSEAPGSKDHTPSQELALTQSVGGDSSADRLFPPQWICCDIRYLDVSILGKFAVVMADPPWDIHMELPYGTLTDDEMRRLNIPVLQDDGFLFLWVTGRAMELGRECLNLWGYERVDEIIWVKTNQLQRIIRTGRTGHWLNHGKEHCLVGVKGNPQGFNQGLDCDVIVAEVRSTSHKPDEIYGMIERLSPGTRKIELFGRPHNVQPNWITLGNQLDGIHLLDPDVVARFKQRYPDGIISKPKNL
Sequence of METTL3/METTL14 (Q9HCE5 whole entry partner, species assumed): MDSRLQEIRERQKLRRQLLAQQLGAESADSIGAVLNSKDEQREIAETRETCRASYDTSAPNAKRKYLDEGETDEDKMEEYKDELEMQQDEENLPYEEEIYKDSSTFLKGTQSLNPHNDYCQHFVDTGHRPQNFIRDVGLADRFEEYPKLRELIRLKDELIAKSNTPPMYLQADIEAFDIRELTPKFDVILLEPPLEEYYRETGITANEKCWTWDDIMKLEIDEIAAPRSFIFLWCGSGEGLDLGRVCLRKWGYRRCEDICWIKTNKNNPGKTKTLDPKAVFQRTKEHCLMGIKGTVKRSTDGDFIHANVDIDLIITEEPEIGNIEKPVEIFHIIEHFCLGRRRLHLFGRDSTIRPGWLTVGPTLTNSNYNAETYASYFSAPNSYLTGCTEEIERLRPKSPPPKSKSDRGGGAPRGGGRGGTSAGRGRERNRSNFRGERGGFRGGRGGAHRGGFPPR

| SMILES | IC50 [1] | IC50 [2, 5] | IC50 [3] | IC50 [4] | IC50 [2, 6] |
| --- | --- | --- | --- | --- | --- |
| CCNc1ccc2ccc(OC[C@H]3O[C@@H](n4cc(-c5cn(C)cn5)c5c(N)ncnc54)[C@@H](F)[C@@H]3O)cc2n1 [I-10] | > 1 µM | < 0.01 µM | 1 to 10 µM | 1 to 10 µM |  |
| CNc1ccc2ccc(OC[C@H]3O[C@@H](n4cc(Br)c5c(N)ncnc54)[C@H](O)[C@@H]3O)cc2n1 [I-73] | > 1 µM |  | 1 to 10 µM | 1 to 10 µM | < 0.01 µM |
| CNc1ccc2ccc(OC[C@H]3O[C@@H](n4cc(-c5ccn(C)n5)c5c(N)ncnc54)[C@@H](F)[C@@H]3O)cc2n1 [I-12] | > 1 µM | < 0.01 µM | < 1 µM | < 1 µM |  |
| CNc1ccc2ccc(OC[C@H]3O[C@@H](n4cc(Cl)c5c(N)ncnc54)[C@H](O)[C@@H]3O)cc2n1 [I-70] | > 1 µM |  | 1 to 10 µM | 1 to 10 µM | < 0.01 µM |
| CNc1ccc2ccc(OC[C@H]3O[C@@H](n4cc(CC5CCCC5)c5c(N)ncnc54)[C@H](O)[C@@H]3O)cc2n1 [I-23] | > 1 µM |  | 1 to 10 µM | > 10 µM | < 0.01 µM |
| Cn1ccc(-c2cn([C@@H]3O[C@H](COc4ccc5ccc(N6CCC6)nc5c4)[C@@H](O)[C@@H]3F)c3ncnc(N)c23)n1 [I-149] | > 1 µM | < 0.01 µM | < 1 µM | < 1 µM |  |
| CNc1ccc2ccc(OC[C@H]3O[C@@H](n4cc(C5CCCC5)c5c(N)ncnc54)[C@H](O)[C@@H]3O)cc2n1 [I-33, (2R,3R,4S,5R)-2-(4-amino-5-cyclopentyl-7H-pyrrolo[2,3-d]pyrimidin-7-yl)-5-(((2-(methylamino)quinolin-7-yl)oxy)methyl)tetrahydrofuran-3,4-diol] | > 1 µM |  | < 1 µM | 1 to 10 µM | < 0.01 µM |
| CNc1ccc2ccc(OC[C@H]3O[C@@H](n4cc(C5CC5)c5c(N)ncnc54)[C@@H](F)[C@@H]3O)cc2n1 [I-29] | > 1 µM |  | 1 to 10 µM | < 1 µM | < 0.01 µM |
| CNc1ccc2ccc(CC[C@H]3O[C@@H](n4cc(C5CCCC5)c5c(N)ncnc54)[C@H](O)[C@@H]3O)cc2n1 [I-39] | > 1 µM |  | 1 to 10 µM | 1 to 10 µM | < 0.01 µM |
| CNc1ccc2ccc(OC[C@H]3O[C@@H](n4cc(CC5CC5)c5c(N)ncnc54)[C@@H](F)[C@@H]3O)cc2n1 [I-36] | > 1 µM |  | 1 to 10 µM | 1 to 10 µM | < 0.01 µM |
